ChEMBL document CHEMBL3244359, “Aromatic hydroxylation of beta-adrenergic antagonists. 4- and 5-hydroxylation of 1-(isopropylamino)-3-[2-(allyloxy)phenoxy]-2-propanol (oxprenolol)” (J Med Chem, 1978)

How the values were obtained:
[1] = Drug excretion in Sprague-Dawley rat urine treated with oxprenolol at 20 mg/kg, ip after 24 hrs by GC-CIMS analysis; type: ADME, organism-based; set-up: dose 20 mg/kg, route intraperitoneal; conditions: in vivo
[2] = Retention time of the compound by gas chromatography; type: physicochemical
[3] = Drug excretion in Sprague-Dawley rat urine treated with oxprenolol at 20 mg/kg, ip after 24 hrs by GC-CIMS analysis in presence of beta-glucuronidase and CH2N2; type: ADME, organism-based; set-up: dose 20 mg/kg, route intraperitoneal; conditions: in vivo

SMILES	Drug excretion [1]	Retention_time [2]	Drug excretion [3]
C=CCOc1cc(O)ccc1OCC(O)CNC(C)C (centres undefined)	metabolite_detected		
C=CCOc1ccc(O)cc1OCC(O)CNC(C)C (centres undefined)	metabolite_detected		
C=CCOc1ccccc1OCC(O)CNC(C)C.O=C(O)C(F)(F)F (centres undefined)		5.7 min	
C=CCOc1c(OC)cccc1OCC(O)CNC(C)C.O=C(O)C(F)(F)F (centres undefined)		9.6 min	

Now from value to molecule:

Drug excretion [1]	Retention_time [2]	Drug excretion [3]	SMILES
	13.1 min	metabolite_detected	C=CCOc1cc(OC)ccc1OCC(O)CNC(C)C.O=C(O)C(F)(F)F (centres undefined)
	11.8 min	metabolite_detected	C=CCOc1ccc(OC)cc1OCC(O)CNC(C)C.O=C(O)C(F)(F)F (centres undefined)
	10.5 min		C=CCOc1cccc(OC)c1OCC(O)CNC(C)C.O=C(O)C(F)(F)F (centres undefined)
